According to ChEMBL document CHEMBL1154398, “Synthesis and activity in enhancing long-term potentiation (LTP) of clausenamide stereoisomers” (2009):

What was measured:
Assay type in all cases: functional
[1] = Nootropic activity in hippocampus assessed as increase in amplitude of population spikes for > 40 mins by long-term potentiation enhancement assay relative to control
[2] = Nootropic activity in hippocampus assessed as increase in amplitude of population spikes after 15 mins by long-term potentiation enhancement assay relative to control; set-up: concentration or dose not given beside the values
[3] = Nootropic activity in hippocampus assessed as increase in amplitude of population spikes after 30 mins by long-term potentiation enhancement assay relative to control; set-up: concentration or dose not given beside the values
[4] = Nootropic activity in hippocampus assessed as increase in amplitude of population spikes after 60 mins by long-term potentiation enhancement assay relative to control; set-up: concentration or dose not given beside the values

For CN1C(=O)[C@H](O)[C@@H](c2ccccc2)[C@H]1[C@@H](O)c1ccccc1, the Activity [1] was >30%, the Activity [2] was 36% and the Activity [3] was 47.5%. It also gave an Activity [4] of 107.8%.
With CN1C(=O)[C@@H](O)[C@H](c2ccccc2)[C@H]1[C@H](O)c1ccccc1 the Activity [2] was -18.2% and the Activity [3] was -34.5%.
In the case of CN1C(=O)[C@H](O)[C@H](c2ccccc2)[C@@H]1[C@@H](O)c1ccccc1, the Activity [1] is reported as >30%, the Activity [2] is reported as 26.2% and the Activity [3] is reported as 41.2%. The Activity [4] was 105.4%.
For CN1C(=O)[C@@H](O)[C@@H](c2ccccc2)[C@@H]1[C@@H](O)c1ccccc1, the Activity [2] was -5.9%, the Activity [3] was -1.8% and the Activity [4] was -5.1%.
In the case of CN1C(=O)[C@H](O)[C@H](c2ccccc2)[C@H]1[C@@H](O)c1ccccc1, the Activity [2] is reported as -3%, the Activity [3] is reported as 10.1% and the Activity [4] is reported as 21.7%.
CN1C(=O)[C@H](O)[C@H](c2ccccc2)[C@@H]1[C@H](O)c1ccccc1 showed an Activity [2] of 7.2%, an Activity [3] of 0.3% and an Activity [4] of 5.4%.
In the case of CN1C(=O)[C@@H](O)[C@@H](c2ccccc2)[C@H]1[C@@H](O)c1ccccc1, the Activity [2] is reported as 1.7%, the Activity [3] is reported as 9.7% and the Activity [4] is reported as 9.6%.
With CN1C(=O)[C@H](O)[C@H](c2ccccc2)[C@H]1[C@H](O)c1ccccc1 the Activity [1] was >30%, the Activity [2] was 35% and the Activity [3] was 50.9%. The Activity [4] was 92.3%.
Work on CN1C(=O)[C@@H](O)[C@H](c2ccccc2)[C@H]1[C@@H](O)c1ccccc1 yielded an Activity [2] of -9.4%, an Activity [3] of -8.1% and an Activity [4] of 18.2%.
For CN1C(=O)[C@@H](O)[C@H](c2ccccc2)[C@@H]1[C@H](O)c1ccccc1, the Activity [2] was -2.2%, the Activity [3] was -8.8% and the Activity [4] was 17.3%.
For CN1C(=O)[C@@H](O)[C@@H](c2ccccc2)[C@@H]1[C@H](O)c1ccccc1, the Activity [2] was -11.5%, the Activity [3] was -11.9% and the Activity [4] was -15.4%.
With CN1C(=O)[C@@H](O)[C@H](c2ccccc2)[C@@H]1[C@@H](O)c1ccccc1 the Activity [2] was 31.8%, the Activity [3] was 38.5% and the Activity [4] was 58.1%.
With CN1C(=O)[C@H](O)[C@@H](c2ccccc2)[C@@H]1[C@H](O)c1ccccc1 the Activity [2] was 4.7%, the Activity [3] was -5.3% and the Activity [4] was -9.4%.
Compound CN1C(=O)[C@@H](O)[C@@H](c2ccccc2)[C@H]1[C@H](O)c1ccccc1 has an Activity [2] of -12.7%, an Activity [3] of 2.9% and an Activity [4] of 22.5%.
In the case of CN1C(=O)[C@H](O)[C@@H](c2ccccc2)[C@H]1[C@H](O)c1ccccc1 [(+)CLAUSENAMIDE], the Activity [2] is reported as -9.4%, the Activity [3] is reported as 10.1% and the Activity [4] is reported as 6.4%.
With CN1C(=O)[C@H](O)[C@@H](c2ccccc2)[C@@H]1[C@@H](O)c1ccccc1 [(+)NEOCLAUSENAMIDE] the Activity [2] was -0.7%, the Activity [3] was -29.1% and the Activity [4] was -2.5%.
